Source: patent US7326715B2, “4-Phenyl-6-substituted-pyrimidine-2-carbonitrile derivatives” (N.V. Organon, priority 2005, dated 2008)
Where a name gives a salt, the structure may show the parent alone.

Biological target: T1, recombinant human Cathepsin K (Homo sapiens, UniProt P43235)
T1 sequence (P43235 115-329): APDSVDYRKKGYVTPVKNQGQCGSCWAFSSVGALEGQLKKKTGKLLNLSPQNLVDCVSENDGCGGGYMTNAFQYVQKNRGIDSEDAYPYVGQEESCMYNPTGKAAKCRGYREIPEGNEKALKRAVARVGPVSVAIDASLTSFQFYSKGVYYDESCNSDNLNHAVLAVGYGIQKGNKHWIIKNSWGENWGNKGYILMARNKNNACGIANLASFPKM
Test: Cathepsin K activity: inhibition of recombinant human Cathepsin K (Z-Phe-Arg-AMC fluorescence)
Type: biochemical
Conditions: substrate Z-Phe-Arg-AMC, pH 5.5, fluorescence at 10 minutes, read-out: pIC50 (negative logarithm of the IC50 concentration) for inhibition of human cathepsin K (converted)
Description: To a 384 well microtitre plate is added 5 μl of a 100 μM solution of test compound in assay buffer (100 mM sodium acetate pH 5.5, 5 mM EDTA, 5 mM dithiothreitol) with 10% dimethylsulfoxide (DMSO), plus 10 μl of 100 μM solution of the substratre Z-Phe-Arg-AMC (Bachem; 7-amido-coumarine derivative of the dipeptide N-benzyloxycarbonyl-Phe-Arg-OH) in assay buffer and 25 μl of assay buffer. 10 μl of a 1 mg/l solution of activated recombinant human cathepsin K, in assay buffer, is then added to the well, yielding a final inhibitor concentration of 10 μM. Enzyme activity is determined by measuring the fluorescence of the liberated aminomethylcoumarin at […] using 390 nm excitation, at 10 minutes. Percentage enzyme activity is calculated by comparison of this activity to that of a solution containing no inhibitor. Compounds are subsequently subjected to a dose response curve analysis in order to determine IC50 values for active compounds (where IC50 is the concentration of test compound causing 50% inhibition of the enzymatic activity).
Compounds of the invention typically have a pIC50 (negative logarithm of the IC50 concentration) for inhibition of human cathepsin K of more than 6, preferably more than 7 and most preferably a pIC50 of more than 8, such as for the compounds of Examples 1, 2a, 2b, 3, 5, 6, 8, 12, 14, 13, 16k, 16n, 16o, 17, 22a, 22b, 22c

Molecule `N#Cc1nc(-c2cccc(C(F)(F)F)c2)cc(N2CCNCC2)n1` [Example 1, 4-(Piperazin-1-y)l-6-(3-trifluoromethylphenyl)-pyrimidine-2-carbonitrile] has an IC50 of less than 10 nM.
Work on `COCCN1CCN(c2cc(-c3cccc(C(F)(F)F)c3)nc(C#N)n2)CC1` [Example 2a, 4-[4-(2-Methoxy-ethyl)-piperazin-1-yl]-6-(3-trifluoromethy-phenyl)-pyrimidine-2-carbonitrile] yielded an IC50 of less than 10 nM.
For `N#Cc1nc(-c2cccc(C(F)(F)F)c2)cc(N2CCN(CC(N)=O)CC2)n1` [Example 2b, 4-(4-carbamoylmethyl-piperazin-1-yl)-6-(3-trifluoromethyl-phenyl)-pyrimidine-2-carbonitrile], the IC50 was less than 10 nM.
`N#Cc1nc(-c2cccc(C(F)(F)F)c2)cc(N2CCN(CCC(=O)O)CC2)n1` [Example 5, 4-[4-(2-carboxy-ethyl)-piperazin-1-yl]-6-(3-trifluoromethyl-phenyl)-pyrimidine-2-carbonitrile trifluoroacetic acid salt] showed an IC50 of less than 10 nM.
With `N#Cc1nc(-c2cccc(C(F)(F)F)c2)cc(N2CCN(CC3CC3)CC2)n1` [Example 6, 4-(4-Cyclopropylmethyl-piperazin-1-yl)-6-(trifluoromethyl-phenyl)-pyrimidine-2-carbonitrile trifluoroacetic acid salt] the IC50 was less than 10 nM.
For `N#Cc1nc(-c2cccc(C(F)(F)F)c2)cc(N2CCN(C3CC3)CC2)n1` [Example 8, 4-(4-Cyclopropyl-piperazin-1-yl)-6-(trifluoromethyl-phenyl)-pyrimidine-2-carbonitrile hydrochloric acid salt], the IC50 was less than 10 nM.
Work on `CN1CCN(c2cc(-c3cccc(C(F)(F)F)c3)nc(C#N)n2)CC1(C)C` [Example 12, 4-(3,3,4-Trimethyl-piperazin-1-yl)-6-(3-trifluoromethyl-phenyl)-pyrimidine-2-carbonitrile] yielded an IC50 of less than 10 nM.
Molecule `N#Cc1nc(-c2cccc(C(F)(F)F)c2)cc(N2CCCNCC2)n1` [Example 13, 4-[1,4]Diazepan-1-yl-6-(3-trifluoromethylphenyl)-pyrimidine-2-carbonitrile] has an IC50 of less than 10 nM.
Work on `CN1CCCN(c2cc(-c3cccc(C(F)(F)F)c3)nc(C#N)n2)CC1` [Example 14, 4-(4-Methyl-[1,4]diazepan-1-yl)-6-(3-trifluoromethyl-phenyl)-pyrimidine-2-carbonitrile] yielded an IC50 of less than 10 nM.
Work on `CN1CCC(N(C)c2cc(-c3cccc(C(F)(F)F)c3)nc(C#N)n2)CC1` [Example 16k, 4-[Methyl-(1-methyl-piperidin-4-yl)-amino]-6-(3-trifluoromethyl-phenyl)-pyrimidine-2-carbonitrile trifluoroacetic acid salt] yielded an IC50 of less than 10 nM.
`N#Cc1nc(NCc2nnn[nH]2)cc(-c2cccc(C(F)(F)F)c2)n1` [Example 16n, 4-[(1H-Tetrazol-5-ylmethyl)-amino]-6-(3-trifluoromethyl-phenyl)-pyrimidine-2-carbonitrile] showed an IC50 of less than 10 nM.
For `N#Cc1nc(NCC(=O)O)cc(-c2cccc(C(F)(F)F)c2)n1` [Example 16o, 4-(Carboxymethyl-amino)-6-(3-trifluoromethyl-phenyl)-pyrimidine-2-carbonitrile], the IC50 was less than 10 nM.
`COc1ccc(-c2cc(N3CCNCC3)nc(C#N)n2)cc1C(F)(F)F` [Example 17, 4-(4-Methoxy-3-trifluoromethyl-phenyl)-6-piperazin-1-yl-pyrimidine-2-carbonitrile] gave an IC50 of less than 10 nM.
For `N#Cc1nc(OCCN2CCCCC2)cc(-c2cccc(C(F)(F)F)c2)n1` [Example 22a, 4-(2-Piperidin-1-yl-ethoxy)-6-(3-trifluoromethyl-phenyl)-pyrimidine-2-carbonitrile], the IC50 was less than 10 nM.
`N#Cc1nc(OCCN2CCOCC2)cc(-c2cccc(C(F)(F)F)c2)n1` [Example 22b, 4-(2-Morpholin-4-yl-ethoxy)-6-(3-trifluoromethyl-phenyl)-pyrimidine-2-carbonitrile] gave an IC50 of less than 10 nM.
For `CCN(CC)CCOc1cc(-c2cccc(C(F)(F)F)c2)nc(C#N)n1` [Example 22c, 4-(2-Diethylamino-ethoxy)-6-(3-trifluoromethyl-phenyl)-pyrimidine-2-carbonitrile], the IC50 was less than 10 nM.
